In US20190030046A1, “USE OF PURE COMPOUNDS EXTRACTED FROM ANTRODIA CAMPHORATA” (priority 2016, published 2019):

Assays:
[1] = tested on: phospho-Akt(Ser473)/total-Akt(Ser473); assay: phospho-Akt(Ser473)/total-Akt in C2C12 myotube cells (Western blot); type: cell-based; details: TT 10 and 25 μg/mL, 25 min
Description: In the present invention, C2C12 skeletal myoblasts (ATCC, CRL-1772) were maintained in growth media consisting of Dulbecco's modified Eagle's medium (DMEM) (Gibco BRL) and supplemented with 10% Fetal Bovine Serum (FBS) (Hyclone) and 100 U/mL penicillin/100 μg/mL streptomycin (Gibco BRL), and split 1:4 using 0.05% trypsin when 80% confluent. Myoblasts were diluted and placed in a 9 cm-diameter dish. Cells were cultured to achieve 80%-90% confluency and then the growth media was changed as 2% FBS/DMEM every 24 h for 5-7 days.
In experiments for determining GLUT4 and p-Akt(Ser473)/t-Akt proteins in tubes, differentiated C2C12 cells were serum-starved in DMEM/BSA for 2 h at 37° C. prior to incubation with MeOH crude extract (at 20, 100, 200, and 500 μg/mL), test compounds (at 1, 5, 10, and 25 μg/mL), or vehicle for 25 min, or 100 nM insulin for 25 min.
The cultures obtained by cell culture above were centrifuged, and the resulting pellet was resuspended in a homogenization buffer. The forgoing steps were performed with a filtration membrane. Protein concentrations were measured using a BCA assay (Pierce). Equal amounts of protein were diluted four times in SDS sample buffer, and subjected to SDS PAGE and Western blotting with antibodies specific for Akt, p-Akt Ser^473, and GLUT4. Density blotting analysis was performed using Alpha Easy FC software.

[2] = HFD-induced diabetic mice: absolute tissue weight, body weight, food intake; type: in vivo, C57BL/6J mice; details: 4 weeks; for Absolute tissue weight: Visceral fat: EWAT plus RWAT
From the text: (§1) The difference indicates the daily food intake.

[3] = tested on: 11β-HSD1; assay: Semiquantitative RT-PCR in liver tissue: 11β-HSD1; type: in vivo, C57BL/6J mice; details: vs HF, 4 weeks
Description: as §1
(§2) Total RNA from liver tissue was isolated with a Trizol Reagent (Molecular Research Center, Inc., Cincinnati, Ohio, USA) according to the manufacturer's instructions. The integrity of the extracted total RNA was examined by 2% agarose gel electrophoresis, and the RNA concentration was determined by […] ultraviolet (UV) light absorbency at 260 nm and 280 nm (Spectrophotometer U-2800A, Hitachi). The total RNA (1 μg) was reverse transcribed to cDNA, and 5 μL Moloney murine leukemia virus reverse transcriptase (TEpicentre, Madison, Wis., USA). The PCR was performed in a final 25 μL containing 1 U Blend Taq-Plus (TOYOBO, Japan), 10 μL of the RT cDNA product, 10 μM of each forward (F) and reverse (R) primer, 75 mM Tris-HCL (pH 8.3) containing 1 mg/L Tween 20 (pH 8.3, also known as polyoxyethylene sorbitan monolaurate), 2.5 mM dNTP (deoxy-ribonucleoside triphosphate), and 2 mM MgCl2 (magnesium chloride). The PCR products were analyzed by 2% agarose gel and stained with ethidium bromide.

[4] = tested on: SREBP-1c; assay: Semiquantitative RT-PCR in liver tissue: SREBP-1c; type: in vivo, C57BL/6J mice; details: vs HF, 4 weeks
Description: as §1, §2

[5] = tested on: aP2; assay: Semiquantitative RT-PCR in liver tissue: aP2; type: in vivo, C57BL/6J mice; details: vs HF, 4 weeks
Description: as §1, §2

[6] = tested on: GPAT; assay: Semiquantitative RT-PCR in liver tissue: GPAT; type: in vivo, C57BL/6J mice; details: vs HF, 4 weeks
Description: as §1, §2

[7] = tested on: CPT-1a; assay: Semiquantitative RT-PCR in liver tissue: CPT-1a; type: in vivo, C57BL/6J mice; details: vs HF, 4 weeks
Description: as §1, §2

[8] = tested on: PPARα; assay: Western blot of PPARα protein in liver of HFD mice; details: compared to HF, 4 weeks
[9] = tested on: FAS; assay: Western blot of FAS protein in liver and adipose tissue of HFD mice; details: compared to HF, 4 weeks
Description: The HFD mice were subdivided into 6 groups (9 per group) followed by 8-week induction. […] Following four-week treatment and feeding, the food was removed, and the mice were fasted for 12 h and then sacrificed. Tissue samples required were collected from the mice and weighted. Some of the tissue samples were immediately stored at −80° C. and frozen for subsequent target gene analysis. Plasma samples were collected via centrifugation of whole blood at 1600×g for 15 min at 4° C., followed by plasma separation within 30 min.
We determined PPARα and FAS protein expression levels in liver tissue, PPARγ and FAS protein expression levels in adipose tissue, and membrane GLUT4 expression in skeletal muscle adipose. The total membrane fraction was collected with the buffer and determined as previously described. The membrane GLUT4, p-AMPK, and total AMPK protein content were determined by Western Blotting as previously described.

[10] = tested on: PPARγ; assay: Western blot of PPARγ protein in liver and adipose tissue of HFD mice; details: compared to HF, 4 weeks
[11] = HFD-induced diabetic mice: fasting blood glucose and biochemical indexes; details: 4 weeks; for Blood glucose: 12 h fasted HFD mice; for Plasma FFA / Insulin / Leptin / TC / TG: HFD mice; for Insulin / Leptin: blood; for TC / TG: plasma
Description: The control group and HFD group contained 10% and 45% fat intake, respectively. The HFD mice were subdivided into 6 groups (9 per group) followed by 8-week induction. […] During the experiment, all mice were fasted overnight, and blood samples were collected from the retro-orbital sinus. Following four-week treatment and feeding, the food was removed, and the mice were fasted for 12 h and then sacrificed. Tissue samples required were collected from the mice and weighted. Some of the tissue samples were immediately stored at −80° C. and frozen for subsequent target gene analysis. Plasma samples were collected via centrifugation of whole blood at 1600×g for 15 min at 4° C., followed by plasma separation within 30 min. Some plasma samples obtained were used for TG and TC analysis. The metabolic parameters, including body weight, weight gain, and food intake, were performed as follows. Body weight was daily measured throughout the study. Body weight gain is considered as the difference between one day and the next day. The total weight of food intake was daily measured, followed by weighing the amount of remaining feed after 24 h. The difference indicates the daily food intake.
One part of the forgoing blood samples collected from the retro-orbital sinus of 12 h fasted mice was immediately used for analysis of glucose levels. The other part was used for analysis of blood TG, TC, free fatty acids, blood insulin, leptin, and adiponectin levels. Blood glucose levels were determined by a glucose analyzer (Model 1500 sidekick glucose analyzer, YSI). Plasma triglycerides (TG), total cholesterol (TC), and free fatty acids (FFA) were determined using commercial kits in accordance with manufacturer's instructions (Triglycerides-E test, Cholesterol-E test, and FFA-C test; Wako Pure Chemical, Osaka, Japan). Insulin and leptin levels were measured by enzyme-linked immunosorbent assay (ELISA) (mouse insulin ELISA kit, Mercodia, Uppsala, Sweden; mouse leptin ELISA kit, Morinaga, Yokohama, Japan).

Structure (SMILES): C=C(CC[C@@H](C(=O)O)[C@H]1CC[C@@]2(C)C3=CC[C@H]4C(C)(C)[C@@H](O)CC[C@]4(C)C3=CC[C@]12C)C(C)C [TT, dehydroeburicoic acid]
- protein expression level of phospho-Akt(Ser473)/total-Akt(Ser473) [1]: increase
- Absolute tissue weight: Visceral fat ([2]; HF+TT1, 10 mg/kg/day oral): 1142.9 mg
- Absolute tissue weight: Visceral fat ([2]; HF+TT2, 20 mg/kg/day oral): 1116.2 mg
- Absolute tissue weight: Visceral fat ([2]; HF+TT3, 40 mg/kg/day oral): 979.3 mg
- Absolute tissue weight: Brown adipose tissue (BAT) ([2]; HF+TT1, 10 mg/kg/day oral): 228.6 mg
- Absolute tissue weight: Epididymal white adipose tissue (EWAT) ([2]; HF+TT1, 10 mg/kg/day oral): 798.9 mg
- Absolute tissue weight: Liver ([2]; HF+TT1, 10 mg/kg/day oral): 848.3 mg
- Absolute tissue weight: Mesenteric white adipose tissue (MWAT) ([2]; HF+TT1, 10 mg/kg/day oral): 361.3 mg
- Absolute tissue weight: Retroperitoneal white adipose tissue (RWAT) ([2]; HF+TT1, 10 mg/kg/day oral): 343.9 mg
- Absolute tissue weight: Spleen ([2]; HF+TT1, 10 mg/kg/day oral): 77.7 mg
- Final body weight ([2]; HF+TT1, 10 mg/kg/day oral): 27.52 g
- Food intake ([2]; HF+TT1, 10 mg/kg/day oral): 2.21 g/day/mouse
- Weight gain ([2]; HF+TT1, 10 mg/kg/day oral): 2.24 g
- Absolute tissue weight: Brown adipose tissue (BAT) ([2]; HF+TT2, 20 mg/kg/day oral): 197.3 mg
- Absolute tissue weight: Epididymal white adipose tissue (EWAT) ([2]; HF+TT2, 20 mg/kg/day oral): 784.3 mg
- Absolute tissue weight: Liver ([2]; HF+TT2, 20 mg/kg/day oral): 841.8 mg
- Absolute tissue weight: Mesenteric white adipose tissue (MWAT) ([2]; HF+TT2, 20 mg/kg/day oral): 340.9 mg
- Absolute tissue weight: Retroperitoneal white adipose tissue (RWAT) ([2]; HF+TT2, 20 mg/kg/day oral): 331.9 mg
- Absolute tissue weight: Spleen ([2]; HF+TT2, 20 mg/kg/day oral): 81.5 mg
- Final body weight ([2]; HF+TT2, 20 mg/kg/day oral): 26.47 g
- Food intake ([2]; HF+TT2, 20 mg/kg/day oral): 2.16 g/day/mouse
- Weight gain ([2]; HF+TT2, 20 mg/kg/day oral): 0.89 g
- Absolute tissue weight: Brown adipose tissue (BAT) ([2]; HF+TT3, 40 mg/kg/day oral): 198.1 mg
- Absolute tissue weight: Epididymal white adipose tissue (EWAT) ([2]; HF+TT3, 40 mg/kg/day oral): 667.8 mg
- Absolute tissue weight: Liver ([2]; HF+TT3, 40 mg/kg/day oral): 802.8 mg
- Absolute tissue weight: Mesenteric white adipose tissue (MWAT) ([2]; HF+TT3, 40 mg/kg/day oral): 304.6 mg
- Absolute tissue weight: Retroperitoneal white adipose tissue (RWAT) ([2]; HF+TT3, 40 mg/kg/day oral): 311.4 mg
- Absolute tissue weight: Spleen ([2]; HF+TT3, 40 mg/kg/day oral): 82.3 mg
- Final body weight ([2]; HF+TT3, 40 mg/kg/day oral): 26.53 g
- Food intake ([2]; HF+TT3, 40 mg/kg/day oral): 2.07 g/day/mouse
- Weight gain ([2]; HF+TT3, 40 mg/kg/day oral): 0.83 g
- 11β-HSD1 mRNA expression level in liver ([3]; HF+TT1, 10 mg/kg/day oral): decreased
- 11β-HSD1 mRNA expression level in liver ([3]; HF+TT2, 20 mg/kg/day oral): decreased
- 11β-HSD1 mRNA expression level in liver ([3]; HF+TT3, 40 mg/kg/day oral): decreased
- SREBP-1c mRNA expression level in liver ([4]; HF+TT1, 10 mg/kg/day oral): decreased
- SREBP-1c mRNA expression level in liver ([4]; HF+TT2, 20 mg/kg/day oral): decreased
- SREBP-1c mRNA expression level in liver ([4]; HF+TT3, 40 mg/kg/day oral): decreased
- aP2 mRNA expression level in liver ([5]; HF+TT1, 10 mg/kg/day oral): decreased
- aP2 mRNA expression level in liver ([5]; HF+TT2, 20 mg/kg/day oral): decreased
- aP2 mRNA expression level in liver ([5]; HF+TT3, 40 mg/kg/day oral): decreased
- GPAT mRNA expression level in liver ([6]; HF+TT1, 10 mg/kg/day oral): decreased
- GPAT mRNA expression level in liver ([6]; HF+TT2, 20 mg/kg/day oral): decreased
- GPAT mRNA expression level in liver ([6]; HF+TT3, 40 mg/kg/day oral): decreased
- CPT-1a mRNA expression level in liver ([7]; HF+TT1, 10 mg/kg/day oral): increased
- CPT-1a mRNA expression level in liver ([7]; HF+TT2, 20 mg/kg/day oral): increased
- CPT-1a mRNA expression level in liver ([7]; HF+TT3, 40 mg/kg/day oral): increased
- PPAR protein expression level in liver ([8]; HF+TT1, 10 mg/kg/day oral): significantly increased
- PPAR protein expression level in liver ([8]; HF+TT2, 20 mg/kg/day oral): significantly increased
- PPAR protein expression level in liver ([8]; HF+TT3, 40 mg/kg/day oral): significantly increased
- FAS protein expression level in adipose tissue ([9]; HF+TT1, 10 mg/kg/day oral): significantly decreased
- FAS protein expression level in liver ([9]; HF+TT1, 10 mg/kg/day oral): significantly decreased
- FAS protein expression level in adipose tissue ([9]; HF+TT2, 20 mg/kg/day oral): significantly decreased
- FAS protein expression level in liver ([9]; HF+TT2, 20 mg/kg/day oral): significantly decreased
- FAS protein expression level in adipose tissue ([9]; HF+TT3, 40 mg/kg/day oral): significantly decreased
- FAS protein expression level in liver ([9]; HF+TT3, 40 mg/kg/day oral): significantly decreased
- PPARγ protein expression level in adipose tissue ([10]; HF+TT1, 10 mg/kg/day oral): significantly decreased
- PPARγ protein expression level in liver ([10]; HF+TT1, 10 mg/kg/day oral): significantly decreased
- PPARγ protein expression level in adipose tissue ([10]; HF+TT2, 20 mg/kg/day oral): significantly decreased
- PPARγ protein expression level in liver ([10]; HF+TT2, 20 mg/kg/day oral): significantly decreased
- PPARγ protein expression level in adipose tissue ([10]; HF+TT3, 40 mg/kg/day oral): significantly decreased
- PPARγ protein expression level in liver ([10]; HF+TT3, 40 mg/kg/day oral): significantly decreased
- Blood glucose ([11]; HF+TT1, 10 mg/kg/day oral): 90.44 mg/dL
- Blood glucose ([11]; HF+TT2, 20 mg/kg/day oral): 82.89 mg/dL
- Blood glucose ([11]; HF+TT3, 40 mg/kg/day oral): 77.78 mg/dL
- Plasma FFA ([11]; HF+TT1, 10 mg/kg/day oral): 0.95 meq/L
- Plasma FFA ([11]; HF+TT2, 20 mg/kg/day oral): 0.87 meq/L
- Plasma FFA ([11]; HF+TT3, 40 mg/kg/day oral): 0.81 meq/L
- Insulin ([11]; HF+TT1, 10 mg/kg/day oral): 2.982 µg/L
- Leptin ([11]; HF+TT1, 10 mg/kg/day oral): 9.827 ng/mL
- Insulin ([11]; HF+TT2, 20 mg/kg/day oral): 2.625 µg/L
- Leptin ([11]; HF+TT2, 20 mg/kg/day oral): 8.468 ng/mL
- Insulin ([11]; HF+TT3, 40 mg/kg/day oral): 2.190 µg/L
- Leptin ([11]; HF+TT3, 40 mg/kg/day oral): 6.439 ng/mL
- TC ([11]; HF+TT1, 10 mg/kg/day oral): 120.55 mg/dL
- TG ([11]; HF+TT1, 10 mg/kg/day oral): 84.85 mg/dL
- TC ([11]; HF+TT2, 20 mg/kg/day oral): 114.93 mg/dL
- TG ([11]; HF+TT2, 20 mg/kg/day oral): 83.63 mg/dL
- TC ([11]; HF+TT3, 40 mg/kg/day oral): 112.46 mg/dL
- TG ([11]; HF+TT3, 40 mg/kg/day oral): 82.31 mg/dL
